Consider one compound from patent publication US20260166057A1, “1,3,5(10),16-ESTRATETRAEN-3-YL ACETATE FOR USE IN IMPROVING PSYCHOMOTOR OR COGNITIVE PERFORMANCE” (priority 2023, published 2026).

The structures appear in SMILES notation. Like-named read-outs stand apart in the source and are kept apart here.

For experiment [1], the system named is subjects with shift work sleep disorder. The experiment can be described thus: ETA in mental fatigue associated with shift work sleep disorder (Example 5). In kind it is in vivo, human. To be noted: intranasal as in Example 4. The source says:
In subjects experiencing decreased psychomotor and/or cognitive performance in mental fatigue associated with shift work sleep disorder, a therapeutically effective amount of ETA is intranasally administered as described in Example 4. Psychomotor and cognitive performance improve in this group of subjects.

Experiment [2] relates to subjects with MDD. The experiment can be described thus: ETA supplementation in MDD subjects already receiving escitalopram (Example 8). Format: in vivo, human. Conditions: ETA added to escitalopram. The protocol: In subjects experiencing decreased psychomotor and/or cognitive performance in mental fatigue associated with MDD and already receiving treatment with escitalopram, a therapeutically effective amount of ETA is intranasally administered as described in Example 4 as a supplemental or adjunctive treatment. ETA is administered separately from the antidepressant treatment and is given sequentially or proximate in time to situations requiring attention and concentration. […] Psychomotor and cognitive performance improve in this group of subjects.

Experiment [3] deals with subjects with ADHD. Nature of the experiment: ETA in ADHD (Example 11). Conditions: intranasal as in Example 4. Format: in vivo, human. The protocol: In subjects experiencing decreased psychomotor and/or cognitive performance associated with ADHD, a therapeutically effective amount of ETA is administered intranasally as described in Example 4. Psychomotor and cognitive performance improve in this group of subjects.

Experiment [4] relates to vomeronasal organ. To be noted: cited from earlier work.
The mark [5] stands for this setting: both men and women, more pronounced in men.

Consider `CC(=O)Oc1ccc2c(c1)CC[C@@H]1[C@@H]2CC[C@]2(C)C=CC[C@@H]12` [ETA, 1,3,5(10),16-Estratetraen-3-yl acetate], for which the “psychomotor and cognitive performance” value in experiment [1] is on record as “improve”. In experiment [2], the depressive scores entry was “reduce beyond that of the escitalopram alone”; the “psychomotor and cognitive performance” value is listed as “improve”. Besides, in experiment [3], the “psychomotor and cognitive performance” value is given as “improve”. Also, the “change in mass receptor potential (electrovomerogram)” value in experiment [4] (60 pg dose to the vomeronasal organ, vs control (propylene glycol), men vs women) was “higher amplitude in men”. Moreover, the skin temperature result in experiment [4] (both men and women, more pronounced in men (FIGS. 6G and 6H)) was “increase”. Also, in experiment [4] (setting [5]), the electrovomerogram entry is recorded as “increase” and the α-cortical activity entry was “increase”. For the same compound, the skin temperature entry in experiment [4] (men, vs control (FIG. 4C)) is recorded as “increase”. In addition, in experiment [4] (men, vs control), the integrated electrovomerogram result was “increase” and the skin resistance result was “decrease”. Moreover, the electrodermal activity entry in experiment [4] (men) is on record as “decrease”.
